The subject of data set [1] is MND enzyme. It is filed as biochemical, Methylobacterium Thebainfresser. Conditions: for substrate acceptance / detectable N-demethylase activity (in words): overnight assays, purified MND enzyme from PLUSE cells. How it is done:
Samples were injected by the UFLCXR (Shimadzu) autosampler/pump system using a 0.5 ml/min flow rate prior to separation using a Gemini C-18 column (150×2.00 mm, 5μ, 110 Å; Phenomenex) and introduction into the QTRAP 6500. The program consisted of a binary gradient with solvent A (5% acetonitrile/5% MeOH/10 mM ammonium acetate/15 mM NH4OH) and solvent B (90% acetonitrile/10 mM ammonium acetate/15 mM NH4OH) and the following gradient: 0-2.0 min 0% B, 2.0-9.0 min 0-44% B, 9.0-11.0 min 44-100% solvent B, 11-13 min 100% B and 100-0% solvent B from 13-14 min and held at 0% B for an additional 8 min. EPI scans for each substrate and predicted product mass were included for each enzyme assay and source parameters were identical to those used for the QTRAP 4000 above except CE and DP which were based upon the optimum for each individual compound. Masses used can be found in table 3. Data were analyzed using Analyst 1.6.2.
Substrates were prepared in a 1 mM stock concentration then diluted to 100 μM working concentration for use in enzyme assays with the MND enzyme. […] No more than 15% ethanol was added to the 1 mM concentrations. […] All enzyme assays contained 30 mM potassium phosphate buffer pH 8.0, 7.5 μM substrate and 100 μl of purified MND enzyme (˜36 μg) in a total volume of 200 μl. Duplicate assays of each substrate using purified pET28a empty vector were performed as negative control and an assay containing thebaine and MND enzyme was used as a positive control. Assays were incubated at 30° C. overnight prior to ethyl acetate extraction. All samples were diluted 10 fold with 50% MeOH and analyzed on the QTRAP 6500 using method 2 and a 20 μl injection volume. The percentage of substrate demethylation was calculated based upon reduction of substrate in the enzyme assay as compared to the negative control.
Purified MND enzyme from PLUSE cells was used to test various substrates containing a methylated nitrogen (FIG. 16) in overnight assays.

Data set [2] is described as follows: Proteinase K treatment and cofactor addition, conversion of thebaine to northebaine. In kind it is biochemical. Conditions: 1500 pmol cofactor added to no enzyme and pET28a empty vector controls. How it is done: The first of two assays performed included adding 1500 pmol FAD to the 200 MND enzyme assay including 100 μl purified MND (˜36 μg) and 1500 pmol thebaine in 30 mM potassium phosphate buffer pH 7.0 with and without a prior 1 hour digest (of MND enzyme) with Proteinase K. Controls included a no enzyme control, FAD addition to a no enzyme control, a pET28a empty vector control, a pET28a empty vector control with FAD, and a pET28a empty vector control digested with Proteinase K followed by FAD addition. Assays were allowed to incubate for 20 minutes and then processed as in section 23.0. A second set of assays was performed, in duplicate, to validate the results found in the previous assay in addition to testing more cofactors. This assay included the following conditions; MND enzyme, MND enzyme pre-digested with Proteinase K for 1 hour, MND enzyme digested with Proteinase K in the presence of 1% SDS and 10 mM EDTA, MND enzyme with 1% SDS and 10 mM EDTA (no Proteinase K pre-digestion), pET28a empty vector, pET28a empty vector pre-digested with Proteinase K for 1 hour, pET28a empty vector digested with Proteinase K in the presence of 1% SDS and 10 mM EDTA, MND enzyme with the addition of 1500 pmol FMN, pET28a empty vector with the addition of 1500 pmol FMN, MND enzyme with the addition of 1500 pmol PLP and pET28a empty vector with the addition of 1500 pmol PLP. Assays were allowed to proceed for 20 minutes prior to processing and quantitation as described in section 23.0.

The test system of data set [3] is MND enzyme. Description: Purified MND enzyme assay using thebaine as substrate. In kind it is biochemical, Methylobacterium Thebainfresser. On the procedure:
[…]. No enzyme, boiled enzyme, and purified empty vector controls were included. MND enzyme was heated for 10 min at 95° C. for the boiled enzyme control. Assays were extracted twice with 400 μl ethyl acetate and dried to completion with N2. Dried samples were resuspended in 150 μl of 50% MeOH, filtered (low protein binding 0.2 μm, 4 mm, PTFE; Millipore), and diluted 100 fold prior to LC-MS/MS analysis on the QTRAP 6500 using method 1 and a 5 μl injection volume.
Enzyme assays using the purified MND enzyme protein produced in PLUSE cells were done, in duplicate, as indicated above with the following exceptions: 10 μl of 100 μM codeine standard was added to each assay, prior to extraction, as an internal standard. Dried extracts were resuspended in 200 μl of 50% MeOH, filtered (0.2 μm, 4 mm, PTFE, Millipore). Samples were diluted 50 fold prior to a 5 μl injection onto the QTRAP 6500 using method 1.

Substrate in data set [4]: COC1=CC=C2[C@H]3Cc4ccc(OC)c5c4[C@@]2(CCN3C)[C@H]1O5
Description: purified protein, by the assay type. Conditions: pH 7.0; 30.0 °C.

Where [5] appears, read: overnight enzyme assay at 30° C., 7.5 μM substrate, ~36 μg purified MND enzyme, pH 8.0, reduction of substrate vs empty vector control, percentages approximate.

We go through 30 molecules from patent US11542481B2, “Morphinan N-demethylase isolated from the methylobacterium thebainfresser and methods of use thereof” (priority 2017, dated 2023).

Like-named read-outs stand apart in the source and are kept apart here.

The term Km denotes the concentration of substrate that gives half-maximal velocity. A word on the Vmax: it is the top rate of the reaction or transport when substrate is in excess. The term kcat denotes the number of substrate molecules converted per active site and unit of time at saturation.

Take `CN(C)Cc1c[nH]c2ccccc12` [Gramine]: the “substrate acceptance / detectable N-demethylase activity (in words)” value in data set [1] is reported as “accepted”. In addition, the Percent demethylated in data set [1] (setting [5]) was 51%.

`CN1CC[C@]23c4c5ccc(O)c4O[C@H]2[C@@H](O)C=C[C@H]3[C@H]1C5` [Morphine]: the Percent demethylated in data set [1] (pH 8) worked out at 100%.

`COc1ccc(CC2c3cc(OC)c(OC)cc3CCN2C)cc1OC` (centres unmarked) [Laudanosine] yielded a Percent demethylated in data set [1] (setting [5]) of 31%.

`COc1cc2c(cc1O)[C@H](CCc1cc(O)c(OC)c(OC)c1)N(C)CC2` [Autumnaline] returned a Percent demethylated in data set [1] (setting [5]) of 11%.

Turning to `CN1[C@@H]2C[C@@H](OC(=O)[C@H](CO)c3ccccc3)C[C@H]1[C@@H]1O[C@@H]12` [Scopolamine], the “substrate acceptance / detectable N-demethylase activity (in words)” value in data set [1] is listed as “accepted”. Also, the Percent demethylated in data set [1] (setting [5]) is reported as 65%.

`Cc1cc2nc3c(=O)[nH]c(=O)nc-3n(C[C@H](O)[C@H](O)[C@H](O)COP(=O)(O)OP(=O)(O)OC[C@H]3O[C@@H](n4cnc5c(N)ncnc54)[C@H](O)[C@@H]3O)c2cc1C` [FAD, flavin adenine dinucleotide]: in data set [2], the “background demethylation of thebaine to northebaine on cofactor addition” value (from here on “background demethylation of thebaine”) is given as “slight increase”.

`CN1[C@@H]2CC[C@H]1CC(=O)C2` [Tropinone]: the “substrate acceptance / detectable N-demethylase activity (in words)” value in data set [1] is reported as “accepted”. The molecule also showed a Percent demethylated in data set [1] (setting [5]) of 40%.

As for `CN1[C@@H](CC(=O)c2ccccc2)CCC[C@H]1C[C@H](O)c1ccccc1` [(−)-Lobeline], the “substrate acceptance / detectable N-demethylase activity (in words)” value in data set [1] is given as “accepted”. In data set [1] (setting [5]), this molecule came in with a Percent demethylated of 20%.

`COc1ccc2c(c1OC)C(=O)O[C@@H]2[C@H]1c2c(cc3c(c2OC)OCO3)CCN1C` [Noscapine (Narcotine)] yielded a Percent demethylated in data set [1] (setting [5]) of 20%.

In the case of `CN1[C@@H]2CC[C@H]1C[C@@H](OC(=O)[C@H](CO)c1ccccc1)C2` [Hyoscyamine], the “substrate acceptance / detectable N-demethylase activity (in words)” value in data set [1] was “accepted”. In addition, the Percent demethylated in data set [1] (setting [5]) is on record as 18%.

In data set [1] (setting [5]), `COc1ccc2c3c1O[C@H]1[C@@H](O)C=C[C@H]4[C@@H](C2)N(C)CC[C@@]341` [Codeine] registered a Percent demethylated of 100%.

In data set [1] (setting [5]), `CN1CC[C@]23c4c5ccc(O)c4O[C@H]2C(=O)C=C[C@H]3[C@H]1C5` [Morphinone] returned a Percent demethylated of 100%.

In data set [1] (setting [5]), `CN1CC[C@]23c4c5ccc(O)c4O[C@H]2C(=O)CC[C@@]3(O)[C@H]1C5` [Oxymorphone] came in with a Percent demethylated of 73%.

As to `COc1cc2c3c(c1O)-c1c(cccc1OC)C[C@@H]3N(C)CC2` [Isothebaine], the “substrate acceptance / detectable N-demethylase activity (in words)” value in data set [1] is “accepted”. Also, the Percent demethylated in data set [1] (setting [5]) came to 35%.

With `COC1=CC=C2[C@H]3Cc4ccc(O)c5c4[C@@]2(CCN3C)[C@H]1O5` [Oripavine], in data set [1] (setting [5]), the Percent demethylated was 100%.

With `Cc1cc2nc3c(=O)[nH]c(=O)nc-3n(C[C@H](O)[C@H](O)[C@H](O)COP(=O)(O)O)c2cc1C` [FMN, flavin mononucleotide], in data set [2], the “background demethylation of thebaine” value is “increase in background activity”.

For `COc1ccc(C[C@@H]2c3cc(O)c(OC)cc3CCN2C)cc1O` [(R)-Reticuline], in data set [1] (setting [5]), the Percent demethylated was determined as 25%.

For `COc1ccc2c3c1O[C@H]1C[C@@H](O)C=C[C@@]31CCN(C)C2` [Galanthamine], the “substrate acceptance / detectable N-demethylase activity (in words)” value in data set [1] is listed as “accepted”. In data set [1] (setting [5]), this molecule had a Percent demethylated of 27%.

As to `CC(=O)Oc1ccc2c3c1O[C@H]1[C@@H](OC(C)=O)C=C[C@H]4[C@@H](C2)N(C)CC[C@@]341` [Heroin], the Percent demethylated in data set [1] (setting [5]) is 70%.

`COc1ccc2c3c1O[C@H]1C(=O)C=C[C@H]4[C@@H](C2)N(C)CC[C@]314` [Codeinone] gave a Percent demethylated in data set [1] (setting [5]) of 100%.

Turning to `Cc1ncc(COP(=O)(O)O)c(C=O)c1O` [PLP], the “background demethylation of thebaine” value in data set [2] is listed as “did not”.

In data set [1] (setting [5]), `COc1ccc(C[C@H]2c3cc(O)c(OC)cc3CCN2C)cc1O` [(S)-Reticuline] had a Percent demethylated of 55%.

In data set [1] (setting [5]), `COc1cc(C[C@@H]2c3cc(O)c(OC)cc3CCN2C)ccc1O` [Orientaline] yielded a Percent demethylated of 100%.

The molecule Isoorientaline displayed a Percent demethylated in data set [1] (setting [5]) of 86%.

As for `COc1ccc(CC2c3cc(OC)c(O)cc3CCN2C)cc1O` (centres unmarked) [Protosinomenine], the Percent demethylated in data set [1] (setting [5]) came out at 60%.

Regarding `COC1=CC=C2[C@H]3Cc4ccc(OC)c5c4[C@@]2(CCN3C)[C@H]1O5` [Thebaine], in data set [1] (setting [5]), the Percent demethylated stood at 100%. The “conversion to N-demethylthebaine (northebaine)” value in data set [3] (aqueous solution at 30° C.) amounted to 100%. In data set [3] (overnight assay, purified MND enzyme, 1500 pmol thebaine, pH 8.0, 30° C.), the “substrate depletion (in words)” value is on record as “depleted completely”.

In data set [1] (setting [5]), `COC1=C[C@]23CCN(C)[C@H](Cc4ccc(OC)c(O)c42)C3=CC1=O` [Salutaridine] yielded a Percent demethylated of 100%.

As to `COC1=C[C@]23CCN(C)[C@H](Cc4ccc(OC)c(O)c42)C3=C[C@@H]1O` [Salutaridinol], the Percent demethylated in data set [1] (setting [5]) stood at 100%.

`COc1ccc(C[C@H]2c3cc(OC)c(OC)cc3CCN2C)cc1O` [Laudanine (Laudanidine)] displayed a Percent demethylated in data set [1] (setting [5]) of 14%.

B1: Methylobacterium Thebainfresser morphinan N-demethylase (MND), SEQ ID NO: 2, His-tag purified from E. coli PLUSE cells (Methylobacterium thebainfresser) (protein)
chain: MTEKTPKLGSEAANKLGLEADISRRDMVGGVLIGAGAALLASVAPGAINRALAEGPSRLPPVRGSGTGWRGIEIADDWQGPGGIGDYSKSNGNTGKVIRDAHAGIRNHEFEKRLATASDVNEKYDVIIVGAGISGLHSAYDLLRQRPNIKILMLDNHAIFGGEAKQNKMEVDGQALYGGQGPTLYSFVGDDLPSWKGNPALASIMELKTYPKEFGLPTETTWSDKKTDVKVPVDLWFSMASPSQTDIAYRWEGSGLVKNPLLNSFRDAPVSQKSKDAIALMLAVDNGAKRPVEPVGDVSTWVDNMTYAEFLKKVYGADDEAVQLVDQIDVVGTAGLGGDVFNASLAALGLNQYGGIELWNGGLQGLSLPTGNGGVGRSILRKFMPGAIKGGTSLTDTLFGDVNWDVLDHANNNVRIRLNSTVVGVQNNETPTGTKDATVFFLHDNRLYKAKGKAVIMGTPQQVNRNVCLNLPNHLSEAMGDFHHAPILVVNVALRNWKSMEKAGVSGLRWFGEYPGIGQIVRSMVIDGKEIMPCDPSKPAVMTFYIPMNQATRGMPRGEQAMTARHMLFNLTFADIELLIRDQLTRAFGSYGFDAKRDIAAIVANRWGHALVCAGPGFYTGLNGKPPVSKVITAGWDRVAFGHSDLSGRQAWTVAVNYARTAVANVFPKI
For the molecule B1, in data set [4], the Km is 0.97 µM, the Vmax is 0.32 pmol/s and the kcat is 0.00065 s⁻¹.
